Assay results: patent US12036223B2, “Small molecule trail gene induction by normal and tumor cells as an anticancer therapy” (The Penn State Research Foundation, priority 2011, dated 2024)
Read-outs that look alike come from different tables or passages of the source.

Tests used:
[1] = test system: SF767 intracranial tumors; experiment: Overall survival of mice harboring SF767 intracranial tumors; format: in vivo, athymic nude mice; settings: for Median Survival: TIC10 25 mg/kg oral, bevacizumab 10 mg/kg i.v.
Method: For intracranial xenografts, anesthetized athymic nude mice were implanted with 2×10^5 SF767 cells in a 25 μL suspension of serum- and antibiotic-free RPMI. The site of injection was a burr hole created 1 mm lateral to the midline of the skull and 1 mm anterior to the coronal suture. The injection was gradually administered over 5 minutes with a Hamilton syringe and the burr hole was sealed using bone wax. Tumor take was assessed by bioluminescent imaging 2 weeks following implantation. Bioluminescent imaging of tumors was carried out on an IVIS imaging system as described in Wang et al., 2003, PNAS 100:15095-15100.

[2] = test system: MDA-MB-231 human breast cancer xenografts; experiment: MDA-MB-231 subcutaneous xenograft; settings: single doses, TIC10 i.p., TRAIL i.v.
Method: (§4) For subcutaneous xenografts, 4-6 week old female, athymic nu/nu mice (Charles River Laboratories) were inoculated with 1×10^6 cells (2.5×10^6 for T98G) of indicated cell lines in each rear flank as a 200 μL suspension of 1:1 Matrigel (BD):PBS. All intraperitoneal and intravenous injections were given at a total volume of 200 μL. […] Tumors were monitored using digital calipers at indicated time points. All subcutaneous tumors were allowed to establish for 1-4 weeks post-injection until reaching a volume of ˜125 mm^3 before treatment initiation. Relief of tumor burden was monitored for 3 weeks following disappearance of the tumor and confirmed by visual inspection after euthanasia.
(§5) Error bars indicate standard deviation (s.d.) of replicates. *P<0.05 and **P<0.005 between the indicated condition and control unless otherwise indicated.

[3] = TRAIL protein / recombinant TRAIL, cited from earlier work
DLD-1 xenografts = experiment: DLD-1 subcutaneous xenograft; settings: single dose, 1 week post-treatment, TIC10 i.p., TRAIL i.v.
Method: as §4

[4] = test system: surface TRAIL in a panel of cancer cells; experiment: Surface TRAIL by flow cytometry in cancer cell lines; format: cell-based, human; settings: 72 hr, p53-independent
[5] = test system: Eμ-Myc transgenic mice that spontaneously develop lymphoma; settings: weekly oral TIC10 25 mg/kg during weeks 9-12 of age
Method: Near-infrared imaging of mice was carried out on a Pearl Impulse imaging system (LI-COR) following tail-vein injection of AngioSense® 680 (VisEn Medical, Woburn, MA) according to the manufacturer's protocols. 6 week old Eμ-myc mice were obtained from The Jackson Laboratory (B6.Cg-Tg(IghMyc)22Bri/J).
P value determined by log-rank test. For relative tumor volume plots, tumor size is expressed relative to the tumor size on day 0, which is defined as the day of treatment initiation.

[6] = test system: pAkt and pERK in HCT116 p53−/− cells; experiment: Western blot analysis of pAkt and pERK; format: cell-based, human; settings: TIC10 2.5, 5, 10 μM, 72 hr, dose-dependent
Method: Western blot analysis was conducted as described in Wang, W. et al., PNAS 103, 11003-11008, 2006, using NuPAGE 4-12% Bis-Tris and visualized using Supersignal West Femto (Thermo Scientific) and X-ray film. Nuclear and cytoplasmic extracts were prepared using a cytoplasmic lysis buffer (10 mM HEPES, 10 mM KCl, and 2 mM MgCl2, 1 mM DTT) followed by a nuclear lysis buffer (20 mM HEPES, 420 mM NaCl, 1.5 mM MgCl2, 250 μM EDTA, 25% glycerol). For all lysis buffers, fresh protease inhibitor (Roche) and 1 mM sodium orthovanadate was added immediately prior to use.
TIC10-induced changes in regulators of Foxo3a such as IKK, Akt, and ERK were determined.
FIG. 61 is a graph showing time course of protein expression levels of TIC10-induced effects determined by densitometry of Western blots from replicate experiments as in FIG. 60 (n=3). Data is express relative to the control sample for each time point and normalized to Ran. TRAIL was quantified by flow cytometry as a parallel experiment (n=3).

[7] = test system: intracecal HCT116 p53−/− tumors; settings: multi-dose regimen, once a week
Method: Intracecal implantation was performed as described in Cespedes, M. V., et al., Am J Pathol, 2007, 170(3): p. 1077-1085.
FIG. 37 is a graph showing percent of cohorts with implanted with intracecal HCT116 p53^−/− tumors with evident tumors at the primary and distal sites at endpoint (n=5).
FIG. 38 is a graph showing body weight of mice at endpoint. Error bars indicate s.d. of replicates.

HFF cells [8] = settings: 5 μM, 72 hr
Method: (§1) For all flow cytometry analyses, floating and adherent cells were analyzed on a Coulter-Beckman Elite Epics cytometer. For surface TRAIL experiments, adherent cells were harvested by brief trypsinization, fixed in 4% paraformaldehyde in PBS for 20 min, incubated with an anti-TRAIL antibody for 2 hr (Abeam), washed and incubated with anti-rabbit Alexafluor 488 (Invitrogen) for 30 min, and analyzed. Cells were gated on forward and side scatter to eliminate debris and dead cells from the analysis. Surface TRAIL data is expressed as median fluorescence intensity relative to that of control samples unless indicated as otherwise. For Sub-G1 and cell cycle profile experiments, all cells were pelleted and ethanol fixed followed by staining with propidium iodide (Sigma) in the presence of RNAse. Cell viability assays were carried out in 96-well black-walled clear-bottom plates using CellTiter-Glo® (Promega) according to the manufacturer's protocols. Imaging and quantification of these assays were performed on an IVIS imaging system (Xenogen).

[9] = test system: freshly isolated GBM cells; settings: temozolomide-resistant, previously irradiated, 72 hr
Method: as §1

TRAIL [10] = settings: TIC10 100 mg/kg i.v.
Method: (§2) Tissue analyses. […] Serum was then removed following centrifugation for 5 minutes.

[11] = Blood-brain barrier crossing; settings: in vivo
[12] = Pharmacokinetic analysis of TIC10 in plasma
Method: HPLC analysis was performed by absorbance detection at 239 nm on an Agilent 1200 series system (Agilent, Santa Clara, CA) using an Eclipse XDB-C18 column (Agilent) and a 100 μL injection loop. Isocratic elution at 1 mL/minute was carried out in 0.1% trifluoroacetic acid in dH2O. An acetonitrile (ACN) gradient was carried out for elution as 15-20% ACN at 0-5 minutes, 20-23% for 5-12 minutes, 25% for 12-18 minutes. […] For all plasma samples, blood was obtained by terminal cardiac puncture of the left ventricle and collected into EDTA tubes (BD). Samples were centrifuged at 500 g for 10 minutes. Plasma was deproteinated by the adding 30 μL of perchloric acid to 100 μL of samples, vortexed for 15 seconds, centrifuged for 2 minutes, and the supernatant was immediately injected into the HPLC. AUC was normalized to an internal serum peak with a retention time of 8.1 minutes. AUC data versus time was fit with a two-compartment open model with first order elimination from central compartment using the equation AUC=Ae^−αt+Be^−βt where t=time and A and B are the extrapolated concentrations at the initiation of the two phases (distribution and elimination). Half-lives calculated as t1/2α=0.693/α and t1/2β=0.693/β. Other equations used for calculation include CL=dose/AUC0-∞ and Vd=dose/(AUC0-∞Xβ).
Error bars represent standard error mean of replicates.

HCT116 xenograft = experiment: HCT116 xenograft, single oral dose titration; format: in vivo, athymic nu/nu mice; settings: 25 mg/kg
Method: as §4, §5

[13] = Serum chemistry of C57/B6 mice treated weekly for 4 weeks
Method: For CBC/differential and serum chemistry assays, 1 mL of blood was harvested from anesthetized mice by terminal cardiac puncture of the left ventricle. For serum chemistry, 500 μL, was placed into a microfuge tube and allowed to clot for 30 minutes at room temperature followed by centrifugation. Serum was removed, centrifuged again to remove any further clots, and serum was submitted for analysis. For CBC/differentials, 500 μL of blood was collected into EDTA tubes and analyzed.

[14] = Body weight and liver histology of treated mice; settings: TIC10 100 mg/kg i.p. single dose; 25 mg/kg oral weekly for 4 weeks
Method: Tissue analyses. Mice were humanely sacrificed at indicated time points and excised normal tissue or tumors were fixed in 4% paraformaldehyde/PBS overnight at 4° C. If plasma samples were desired, 500 μL of blood was collected by terminal cardiac puncture under anesthesia in EDTA-Vacutainer tubes (BD). Serum samples were collected in a similar fashion but in microcentrifuge tubes followed by a 30 minute incubation at room temperature to allow for clotting. Serum was then removed following centrifugation for 5 minutes. Paraffin-embedded blocks, serial section slides, and hematoxylin and eosin staining were prepared according to standard procedures. TUNEL staining was performed using the ApopTag® Peroxidase In Situ Apoptosis Detection Kit (Millipore). For IHC analysis, slides were dewaxed in xylene and hydrated in a decreasing gradient of ethanol. Antigen retrieval was carried out by boiling in 10 mM citric acid (pH 6.0) for 6 min. Samples were blocked with streptavidin and biotin blocking solutions and goat serum (Vector Laboratories). Primary antibodies were incubated overnight at 4° C. in a humidity chamber. Incubation with biotinylated secondary antibody and DAB deposition was carried out according the manufacturer's protocol (Vector Laboratories DAB Substrate Kit for Peroxidase). […] Images were recorded on an Axioskop microscope using QCapture software (QImaging).

[15] = test system: TRAIL mRNA in HCT116 p53−/− cells; experiment: RT-qPCR analysis of TRAIL mRNA levels; format: cell-based, human; settings: 48 hr
Method: Total RNA was extracted using RNeasy Minikit (Qiagen) by following the manufacturer's instructions. cDNA was generated using SuperScript II (Invitrogen) with 1 μg of RNA and oligodT. […] PCR amplification was performed with the Applied Biosystems 7900HT Fast Real-time Detection System. Samples were standardized to 10 ng/μl and twenty ng of cDNA per sample was then utilized as a template for real-time PCR using a SYBR Green Master Mix (Qiagen Corp, USA). Samples were normalized to GAPDH used under identical conditions. Quantitation used the 2ΔΔCt method of crossing thresholds described in Livak et al., 2001, Methods. […] Reactions were performed in 384 well optical plates in a 7900HT instrument (Applied Biosystems), with 10 ul reaction volumes. Data analysis used the ABI PRISM 7900 Sequence Detection System 2.2 software. To exclude the possibility of genomic DNA contamination, control PCR reactions with no cDNA template and No-RT control samples were also performed for each gene-specific primer set. Quadruplicates of each PCR reaction were performed and the resultant data was averaged.

HCT116 p53−/− xenograft = experiment: HCT116 p53−/− subcutaneous xenograft; format: in vivo, athymic nu/nu mice; settings: 3 doses on day 0, 3 and 6, TIC10 i.p.
Method: as §4, §5

TRAIL [16] = test system: TRAIL
Method: as §2
ELISA for TRAIL was carried out using the Quantikine® TRAIL/TNFSF10 kit according to the manufacturer's protocol (DTRL00, R&D systems, Minneapolis, MN). […] Absorbances were measured with a DTX 880 plate reader (Beckman Coulter).
(§3) Error bars indicate s.d. of replicates.

HCT116 cells = experiment: Cell viability in HCT116 cells after 1 hr pre-incubation of agent at indicated temperatures; format: cell-based, human; settings: TIC10 5 μM, 1 hr pre-incubation at indicated temperatures, 72 hr
[17] = test system: freshly resected colon tumor cells from a human patient; settings: TIC10 0.6-20 μM
Method: as §1, §3

cancer cell lines = experiment: Colony formation assays, cancer cell lines; format: cell-based, human; settings: 10 μM, 72 hr
GBM cell lines = experiment: Cell viability assays of GBM cell lines; format: cell-based, human; settings: 72 hr post-treatment, p53-independent
Method: For all flow cytometry analyses, floating and adherent cells were analyzed on a Coulter-Beckman Elite Epics cytometer. […] Cells were gated on forward and side scatter to eliminate debris and dead cells from the analysis. […] Cell viability assays were carried out in 96-well black-walled clear-bottom plates using CellTiter-Glo® (Promega) according to the manufacturer's protocols. Imaging and quantification of these assays were performed on an IVIS imaging system (Xenogen).

SW480 xenograft = experiment: SW480 subcutaneous xenograft; format: in vivo, athymic nu/nu mice; settings: single dose 30 mg/kg, intraperitoneal or oral delivery
Method: as §4

HFF cells [18] = experiment: Colony formation parallel experiment, HFF cells
Method: Indicated cell lines were plated at 500 cells per well and treated the following day in fresh complete media after adherence. At 3 days post-treatment, the media was replaced with drug-free media and cells were propagated for 10 days with fresh media given once every 3 days. At the end of the 10 day period, cells were washed in PBS, fixed with methanol, and stained with Coomassie blue, rinsed, and dried for quantification.
Error bars indicate standard deviation (s.d.) of replicates. […] Error bars indicate standard deviation (s.d.) of replicates.

HCT116 p53−/− cells = experiment: Sub-G1 / cell cycle profile, HCT116 p53−/− cells; format: cell-based, human; settings: 5 μM, 72 hr
Method: as §1

[19] = test system: subcutaneous T98G xenografts; experiment: T98G subcutaneous xenograft; format: in vivo, athymic nu/nu mice; settings: single oral dose, 30 mg/kg
Method: TIC10 was tested in preclinical models of GBM as a monoagent and in combination with bevacizumab.

[20] = test system: human TRAIL gene promoter in HCT116 Bax−/− cells; settings: first 504 base pairs of the TRAIL promoter
Method: Bioluminescent high-throughput screening using the NCI diversity set II was carried out in HCT116 Bax^−/− cells that were stably cotransfected to express a firefly luciferase construct under transcriptional control of the first 504 base pairs of the TRAIL promoter upstream of the start of transcription of the human TRAIL gene. Compounds were tested at a working concentration of 20 nM, 200 nM, 500 nM, and 1 μM with bioluminescent assessment of transcriptional activity at 12, 24, 36, and 48 hours post-treatment.

[21] = single dose at 2 weeks post-implantation
[22] = 25 mg/kg intravenous, plasma, two-compartment model
[23] = female, C57/B6, mouse, in vivo, iv, 25 mg/kg
[24] = serum, TIC10 25 mg/kg oral weekly for 4 weeks
[25] = tumor-free mice, TIC10 100 mg/kg i.v.

## bevacizumab [reference compound]
[1]; [21]
  Median Survival: 70 days

## TRAIL: Purified, recombinant TRAIL (TNF-related apoptosis-inducing ligand; Apo2L)
[2]
  effect on tumor: progressed
[3]
  serum half-life: 20 to 30 min
[3]; listed as recombinant TRAIL
  serum half-life: ~30 min
DLD-1 xenografts
  effect on tumor: progressed

## Cc1ccccc1CN1C(=O)C2=C(CCN(Cc3ccccc3)C2)N2CCN=C12 [TIC10]
[4]
  TRAIL protein localized to the cell surface: dose-dependent increase
[2]
  effect on tumor: regression
[5]
  prolongation of survival: 4 weeks
[6]
  pAkt and pERK levels: abolished
[7]
  tolerability / body weight at endpoint: well tolerated
HFF cells [8]
  cell cycle profile of normal fibroblasts: without altering the cell cycle profiles
[9]
  cytotoxicity in freshly isolated GBM cells: cytotoxic effects
TRAIL [10]
  TRAIL protein in normal tissues (IHC): upregulated at the protein level in the brain, kidney, and spleen
  toxicity in normal tissues by histology and TUNEL staining: without apparent toxicity
[11]
  blood-brain barrier crossing: crosses the blood-brain barrier
[12]; 25 mg/kg intravenous, plasma
  t1/2α: 2.82 min
  t1/2β: 385 min
[12]; [22]
  α: 14.9 h⁻¹
  β: 0.108 h⁻¹
[12]; [23]
  AUC(0-inf): 63.9 µM·h
  Cmax: 44.2 µM
  Tmax: 1.2 min
  Vd: 9.39 L/kg
  clearance: 16.8 mL/min/kg
HCT116 xenograft
  effect on tumor: sustained anti-tumor efficacy
[13]; oral TIC10 25 mg/kg weekly for 4 weeks, immuno-competent mice
  changes in a panel of serum chemistry markers: did not cause any changes
[13]; [24]
  Albumin: 2.9 g/dL
  Alkaline phosphate: 112 ± 12 U/L
  Blood urea nitrogen: 33.75 ± 7.3 mg/dL
  Chloride: 104 mM
  Creatinine: 0.15 ± .06 mg/dL
  Lactate dehyrogenase: 287.5 ± 125 U/L
  Potassium: 7.325 ± 3.2 mM
  Sodium: 154.5 ± 5.2 mM
  Total Protein: 4.97 ± .61 g/dL
  Total bilirubin: 2.725 ± 2.4 mg/dL
[14]
  effects on body weight or liver histology: no adverse effects on body weight or liver histology
[15]
  TRAIL mRNA levels: dose-dependent increase
HCT116 p53−/− xenograft
  effect on tumor: tumor regression
TRAIL [16]; after a single dose of TIC10
  duration of sustained serum levels of secreted TRAIL: 3 to 4 days
TRAIL [16]; [25]
  duration of elevated serum levels of TRAIL: greater than 72 hours
  time at which serum TRAIL induced by TIC10 was detected following administration: 2 h
HCT116 cells
  thermal stability of cytotoxic activity: thermally stable
[17]
  cytotoxicity in primary colon cancer cells: potent cytotoxic effects
[1]; [21]
  Median Survival: 74 days
[1]; single dose, intracranial xenograft of human GBM
  change in overall survival: doubled
[1]; versus control cohort, single dose at 2 weeks post-implantation
  ΔMedian Survival: 46 days
Cancer cell lines
  clonogenic survival: decreased the clonogenic survival
GBM cell lines
  GI50: low micromolar range
SW480 xenograft
  effect on tumor: sustained regression
DLD-1 xenografts
  effect on tumor: tumor stasis
HFF cells [18]
  effect on normal fibroblasts in colony formation experiment: sparing normal fibroblasts
HCT116 p53−/− cells
  sub-G1 DNA content: induced sub-G1 DNA content
[19]
  effect on tumor: sustained regression
[20]
  TRAIL promoter luciferase reporter activity: induced TRAIL promoter-dependent transcriptional activity
